The term EC50 denotes the midpoint of the concentration-response curve. A higher EC50 goes with lower potency in that assay.

The values that follow come from patent US20210386695A1 (priority 2020, published 2021).

Type in all cases: cell-based
Assay [1] concerns B.1.1.7 variant of SARS-CoV-2 pseudo-particles.
Assay [2] shares this test system. This is another data set of the same source.
The test system is the same in assay [3]. The assay is described as follows: microbe, parasite or virus in culture. The following applies: Severe acute respiratory syndrome coronavirus 2, Vero C1008.
Assay [4] relates to 501Y-V2 variant of SARS-CoV-2 pseudo-particles. The assay is described as follows: microbe, parasite or virus in culture. The following applies: Severe acute respiratory syndrome coronavirus 2, Vero C1008.

As for `CCN(CC)C(=S)SSC(=S)N(CC)CC` [disulfiram], the “inhibitory capacity in furin-expressing Vero E6 cells compared with Vero E6 cells” value in assay [1] is reported as “similar”. Further, the “block of viral pseudo-particles infection” value in assay [2] was “dose-dependent manner”. The concentration for a half-maximal effect (EC50) in assay [3] worked out at 3.18 µM; in assay [4], 3.84 µM.
